Test: xn = mol fraction of the nth substance listed
Conditions: 298.15 K, 101.3 kPa

CCCC[n+]1ccn(C)c1.F[B-](F)(F)F + CC#N
Conditions | viscosity [mPa·s]
x2 = 0 | 110
x2 = 0.0982 | 70.9
x2 = 0.2265 | 40.3
x2 = 0.3047 | 27.7
x2 = 0.4554 | 13.2
x2 = 0.5059 | 10.22
x2 = 0.5469 | 8.25
x2 = 0.6005 | 6.07
x2 = 0.6441 | 4.58
x2 = 0.6973 | 3.34
x2 = 0.9513 | 0.593

ClCCl + CCCC[n+]1ccn(C)c1.F[B-](F)(F)F
Conditions | viscosity [mPa·s]
x1 = 0.199 | 37.2
x1 = 0.2854 | 26.3
x1 = 0.3985 | 17
x1 = 0.5452 | 10.05
x1 = 0.5958 | 7.69
x1 = 0.6471 | 5.92
x1 = 0.6958 | 4.6
x1 = 0.8019 | 2.59
x1 = 0.9015 | 1.12
x1 = 0.9477 | 0.715
x1 = 1 | 0.401

CC#N + CCCC[n+]1ccn(C)c1.F[B-](F)(F)F
Conditions | viscosity [mPa·s]
x1 = 1 | 0.341

CCC(C)=O + CCCC[n+]1ccn(C)c1.F[B-](F)(F)F
Conditions | viscosity [mPa·s]
x1 = 0.2004 | 42.2
x1 = 0.3969 | 15.2
x1 = 0.4495 | 11.97
x1 = 0.5 | 9.32
x1 = 0.5521 | 7.13
x1 = 0.6062 | 5.38
x1 = 0.6545 | 4.1
x1 = 0.8137 | 1.55
x1 = 0.8974 | 0.847
x1 = 0.9502 | 0.564
x1 = 1 | 0.373

CCCC[n+]1ccn(C)c1.F[B-](F)(F)F + CN(C)C=O
Conditions | viscosity [mPa·s]
x2 = 0 | 110
x2 = 0.2041 | 52.2
x2 = 0.3024 | 32.9
x2 = 0.4061 | 20.8
x2 = 0.4408 | 17.6
x2 = 0.5052 | 12.7
x2 = 0.5459 | 11
x2 = 0.6014 | 7.8
x2 = 0.665 | 6.4
x2 = 0.701 | 5.04
x2 = 0.8008 | 2.91
x2 = 0.9005 | 1.6
x2 = 0.947 | 1.19

CCCC[n+]1ccn(C)c1.F[B-](F)(F)F + CCC(C)=O
Conditions | viscosity [mPa·s]
x2 = 0 | 110

CCCC[n+]1ccn(C)c1.F[B-](F)(F)F + ClCCl
Conditions | viscosity [mPa·s]
x2 = 0 | 110

Source: a compilation of properties of binary mixtures (doi:10.1039/b303735e)
